Test results: patent publication US6359141B2, “Water soluble prodrugs of azole compounds” (Bristol-Myers Squibb Company, priority 1998, dated 2002)

Experiments:
[1] = Release of parent in human plasma; type: in vitro ADME; settings: prodrug conversion to bioactive parent

Structure (SMILES) | Release of Parent in Human Plasma [1] | solubility (Solubility) [µg/mL] | solubility (physchem) [µg/mL]
CCN(CC)Cc1ccc(C(=O)OCO[C@@](Cn2cncn2)(c2ccc(F)cc2F)[C@@H](C)c2nc(-c3ccc(C#N)cc3)cs2)cc1 [Example 1, (2R,3R)-3-[4-(4-cyanophenyl)thiazol-2-yl]-2-(2,4-difluorophenyl)-1-(1H-1,2,4-triazol-1-yl)-2-[[p-(N,N-diethylaminomethyl)benzoyloxy]methoxy]butane] | Yes | > 1000 | 
C[C@@H](c1nc(-c2ccc(C#N)cc2)cs1)C(Cn1cncn1)(OP(=O)([O-])[O-])c1ccc(F)cc1F.[Na+].[Na+] (some centres unmarked) [Example 7 of WO 97/28169] | No | > 1000 | 
C[C@@H](c1nc(-c2ccc(C#N)cc2)cs1)[C@](O)(Cn1cncn1)c1ccc(F)cc1F [Parent, (2R,3R)-3-[4-(4-cyanophenyl)thiazol-2-yl]-2-(2,4-difluorophenyl)-1-(1H-1,2,4-triazol-1-yl)-butan-2-ol] |  |  | < 6
